According to patent US20220395458A1, “PREVENTION OF VISIBLE PARTICLE FORMATION IN AQUEOUS PROTEIN SOLUTIONS” (Hoffmann-La Roche Inc., priority 2019, published 2022):
In brackets after ≈: the same amount, converted by molar mass.

Columns and labels:
[1] = in water at room temperature; cited from earlier work
[2] = Visible particles in E/P box (Ph. Eur. 2.9.20) after spiking FFA to inorganic salt solutions; assay type: physicochemical; settings: FFA below solubility limit; for Visible particles E/P d0: d0 directly after spiking
Protocol: Aqueous stock solutions were prepared in 0.02% PS20 (Croda. Edison, N.J., USA) at defined concentrations of (1) 5 mg/mL and (2) 12.5 mg/mL (lauric acid. Sigma-Aldrich/Merck. Darmstadt. Del.) or (1) 1.5 mg/mL and (2) 5 mg/mL (myristic acid, Sigma-Aldrich/Merck. Darmstadt. Del.) as previously described by Doshi et al.^6 The procedure was adapted that the FFA/PS20 stock solution was sterile filtered using 0.22 μm PVDF Steriflip filters (Merck Millipore. Darmstadt. Del.) before 1:10 dilution and subsequently homogenized without a magnetic stirrer using a Heidolph Rotamax 120 orbital shaker (Schwabach. Del.) at 100 rpm at 25° C., for 1 hour. After 1:500 dilution, the solution was homogenized for 1 hour at 25° C., before homogenization at 2-8° C., overnight, 12-40 μL of stock solution were used for spiking experiments yielding final FFA concentrations of (1) 10 μg/mL and (2) 25 μg/mL (lauric acid) or (1) 3 μg/mL and (2) 10 μg/mL (myristic acid). Dilutions with stock solutions 1 yield FFA concentration below their solubility limit, whereas stock solutions 2 act as positive control confirmed by the formation of visible particles. FFA concentrations were verified for selected by LC-MS samples acc. Honemann et al.^7
(§1) Aqueous stock solutions of different salts were prepared at 1 mg/mL and used for spiking experiments to final concentrations between 250 mg/mL and 1 g/mL. NaCl, NaAlO2. NaBO2. B2O3, and CaCl2 (Sigma-Aldrich/Merck. Darmstadt. Del.) were selected as their dissolution products (ions) represent typical glass leachables from Type I borosilicate glass. The pH of the NaAlO2 and NaBO2 stock solutions was adjusted to pH 6 using HCl and subsequently filtered using 0.22 μm PVDF Sterivex filters (Merck Millipore. Darmstadt. Del.) and true elemental concentrations were determined by inductively-coupled plasma mass spectrometry (ICP-MS). Elemental concentrations were 0,048 μg/mL Aluminium and 295 μg/mL sodium and 78 μg/mL boron and 168 μg/mL, respectively. Spiking experiments with FFA were performed in duplicates.
(§2) Samples were analyzed by visual inspection on a Seidenader V 90-T instrument (Seidenader Maschinenbau GmbH. Markt Schwaben. Del.) as previously described by Ditter et al.^9 and using a black/white panel according Ph. Eur. 2.9.20.^10 and classified as Many particles (>7). Few particles (4-7), or Practically free of particles (0-4) in E/P box, and Many particles (>10). Few particles (6-10). Essentially free of particles (1-5), or Free of particles (0) by Seidenader.
(§3) pH of all solutions was verified. Samples were visually inspected immediately after spiking and regularly for up to 7 days. Further characterization by HIAC, turbidity, FTIR, and SEM-EDX was performed on day 1 only. All samples were analyzed when equilibrated to room temperature (4 h).
(§4) Different inorganic salt solutions, i.e. CaCl2. NaAlO2. NaBO2. B2O3, and NaCl, were prepared simulating artificial glass leachables. Myristic and lauric acid, as main degradation product from hydrolytic PS20 degradation, were added at concentrations below their solubility limit and samples were analyzed for visible particles. SVP, and turbidity. Samples were compared against relevant controls and the pH verified at pH 6.

[3] = Visible particles by Seidenader after spiking FFA to inorganic salt solutions; assay type: physicochemical; settings: for Visible particles in Seidenader: dependent on salt concentration over time, much lesser extent than CaCl2 and NaAlO2; for Visible particles Seidenader d0 / Visible particles Seidenader d2 / Visible particles Seidenader d7 / Visible particles Seidenader d1: FFA below solubility limit; for Visible particles Seidenader d0: d0 directly after spiking
Protocol: Del.) at 100 rpm at 25° C., for 1 hour. […] FFA concentrations were verified for selected by LC-MS samples acc. Honemann et al.^7
as §1, with “Aqueous stock solutions of different salts were prepared at 1 mg/mL and used for spiking experiments to final concentrations between 250 mg/mL and 1 g/mL.” left out, “Elemental concentrations were 0,048 μg/mL Aluminium and 295 μg/mL sodium and 78 μg/mL boron and 168 μg/mL, respectively.” left out
as §2, §3, §4

[4] = CaCl2 250 μg/mL (Ca2+ 90 μg/mL)
[5] = CaCl2 500 μg/mL (Ca2+ 180 μg/mL)
[6] = CaCl2 1000 μg/mL (Ca2+ 360 μg/mL)
[7] = NaAlO2 nominal 250 μg/mL (0.012 μg/mL ion)
[8] = NaAlO2 nominal 500 μg/mL (0.024 μg/mL ion)
[9] = NaAlO2 nominal 1000 μg/mL (0.048 μg/mL ion)

SMILES: CCCCCCCCCCCC(=O)O [Lauric acid, lauric acid]
- solubility level [1]: 15 µg/mL (≈ 74.9 µM)
- Visible particles E/P d0 [2, 4]: / (Practically free of particles (0-4, /) in E/P box)
- Visible particles E/P d2 [2, 4]: / (Practically free of particles (0-4, /) in E/P box)
- Visible particles E/P d7 [2, 4]: / (Practically free of particles (0-4, /) in E/P box)
- Visible particles E/P d0 [2, 5]: / (Practically free of particles (0-4, /) in E/P box)
- Visible particles E/P d2 [2, 5]: / (Practically free of particles (0-4, /) in E/P box)
- Visible particles E/P d7 [2, 5]: / (Practically free of particles (0-4, /) in E/P box)
- Visible particles E/P d0 [2, 6]: / (Practically free of particles (0-4, /) in E/P box)
- Visible particles E/P d2 [2, 6]: xx (Few particles (4-7, xx))
- Visible particles E/P d7 [2, 6]: / (Practically free of particles (0-4, /) in E/P box)
- Visible particles E/P d0 [2, 7]: / (Practically free of particles (0-4, /) in E/P box)
- Visible particles E/P d1 [2, 7]: / (Practically free of particles (0-4, /) in E/P box)
- Visible particles E/P d2 [2, 7]: / (Practically free of particles (0-4, /) in E/P box)
- Visible particles E/P d7 [2, 7]: / (Practically free of particles (0-4, /) in E/P box)
- Visible particles E/P d0 [2, 8]: / (Practically free of particles (0-4, /) in E/P box)
- Visible particles E/P d1 [2, 8]: / (Practically free of particles (0-4, /) in E/P box)
- Visible particles E/P d2 [2, 8]: / (Practically free of particles (0-4, /) in E/P box)
- Visible particles E/P d7 [2, 8]: / (Practically free of particles (0-4, /) in E/P box)
- Visible particles E/P d0 [2, 9]: / (Practically free of particles (0-4, /) in E/P box)
- Visible particles E/P d1 [2, 9]: / (Practically free of particles (0-4, /) in E/P box)
- Visible particles E/P d2 [2, 9]: / (Practically free of particles (0-4, /) in E/P box)
- Visible particles E/P d7 [2, 9]: / (Practically free of particles (0-4, /) in E/P box)
- Visible particles in Seidenader ([3]; B2O3 solution): visible particles were obtained
- Visible particles Seidenader d0 [3, 4]: / (Free of particles (0, /) by Seidenader)
- Visible particles Seidenader d2 [3, 4]: xxx (Many particles (>10, xxx))
- Visible particles Seidenader d7 [3, 4]: xxx (Many particles (>10, xxx))
- Visible particles Seidenader d0 [3, 5]: / (Free of particles (0, /) by Seidenader)
- Visible particles Seidenader d2 [3, 5]: xxx (Many particles (>10, xxx))
- Visible particles Seidenader d7 [3, 5]: xxx (Many particles (>10, xxx))
- Visible particles Seidenader d2 [3, 6]: xxx (Many particles (>10, xxx))
- Visible particles Seidenader d0 [3, 7]: / (Free of particles (0, /) by Seidenader)
- Visible particles Seidenader d1 [3, 7]: x (Essentially free of particles (1-5, x))
- Visible particles Seidenader d2 [3, 7]: x (Essentially free of particles (1-5, x))
- Visible particles Seidenader d0 [3, 8]: x (Essentially free of particles (1-5, x))
- Visible particles Seidenader d1 [3, 8]: x (Essentially free of particles (1-5, x))
- Visible particles Seidenader d1 [3, 9]: x (Essentially free of particles (1-5, x))
- Visible particles Seidenader d7 [3, 9]: xxx (Many particles (>10, xxx))
- Visible particles in Seidenader ([3]; NaBO2 solution): visible particles were obtained
